Like-named read-outs stand apart in the source and are kept apart here.
Columns and labels:
Type in all cases: biochemical
kinases [1] = molecular target: kinases (Homo sapiens, UniProt Q5VT25); conditions: CDC42 BPA (MRCKA) Z-Lyte SP; Test Conc(μM):ATP Conc(μM) 1:5
kinases [2] = molecular target: kinases (Homo sapiens, UniProt Q9BWU1); conditions: Test Conc(μM) 1
kinases [3] = molecular target: kinases (Homo sapiens, UniProt P49760); conditions: CLK2 FRET-Z-Lyte SP; Test Conc(μM):ATP Conc(μM) 1:25
kinases [4] = molecular target: kinases (Homo sapiens, UniProt P29597); conditions: TYK2 FRET-Z-Lyte SP; Test Conc(μM):ATP Conc(μM) 1:25
kinases [5] = molecular target: kinases (Homo sapiens, UniProt O96017); conditions: CHEK2 (CHK2) FRET-Z-Lyte SP; Test Conc(μM):ATP Conc(μM) 1:75
kinases [6] = molecular target: kinases (Homo sapiens, UniProt O00311); conditions: CDC7/DBF4 FRET-Lantha SP; Test Conc(μM) 1
Chain of kinases (Homo sapiens, UniProt O00311) (O00311 whole entry): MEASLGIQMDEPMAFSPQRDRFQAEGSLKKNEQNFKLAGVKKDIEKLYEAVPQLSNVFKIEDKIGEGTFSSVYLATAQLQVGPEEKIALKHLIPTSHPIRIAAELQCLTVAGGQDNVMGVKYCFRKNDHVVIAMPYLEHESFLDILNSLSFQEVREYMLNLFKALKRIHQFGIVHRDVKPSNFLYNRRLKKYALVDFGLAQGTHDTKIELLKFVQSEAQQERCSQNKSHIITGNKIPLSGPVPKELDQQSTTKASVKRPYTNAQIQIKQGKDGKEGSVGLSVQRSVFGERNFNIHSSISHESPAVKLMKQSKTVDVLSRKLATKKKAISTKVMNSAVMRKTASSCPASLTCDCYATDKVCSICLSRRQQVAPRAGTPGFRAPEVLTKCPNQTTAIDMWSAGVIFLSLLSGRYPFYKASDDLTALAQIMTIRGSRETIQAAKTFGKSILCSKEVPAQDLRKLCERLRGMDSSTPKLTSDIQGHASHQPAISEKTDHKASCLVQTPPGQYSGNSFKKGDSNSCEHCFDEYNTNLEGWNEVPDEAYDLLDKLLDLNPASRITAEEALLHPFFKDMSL

kinases [7] = molecular target: kinases (Homo sapiens, UniProt P53350); conditions: PLK1 FRET-Z-Lyte SP; Test Conc(μM):ATP Conc(μM) 1:10
kinases [8] = molecular target: kinases (Homo sapiens, UniProt O43318); conditions: MAP3K7/MAP3K7IP1 Lantha SP; Test Conc(μM) 1
kinases [9] = molecular target: kinases (Homo sapiens, UniProt Q8IU85); conditions: CAMK1D FRET-Z-Lyte SP; Test Conc(μM):ATP Conc(μM) 1:25
Chain of kinases (Homo sapiens, UniProt Q8IU85) (Q8IU85 whole entry): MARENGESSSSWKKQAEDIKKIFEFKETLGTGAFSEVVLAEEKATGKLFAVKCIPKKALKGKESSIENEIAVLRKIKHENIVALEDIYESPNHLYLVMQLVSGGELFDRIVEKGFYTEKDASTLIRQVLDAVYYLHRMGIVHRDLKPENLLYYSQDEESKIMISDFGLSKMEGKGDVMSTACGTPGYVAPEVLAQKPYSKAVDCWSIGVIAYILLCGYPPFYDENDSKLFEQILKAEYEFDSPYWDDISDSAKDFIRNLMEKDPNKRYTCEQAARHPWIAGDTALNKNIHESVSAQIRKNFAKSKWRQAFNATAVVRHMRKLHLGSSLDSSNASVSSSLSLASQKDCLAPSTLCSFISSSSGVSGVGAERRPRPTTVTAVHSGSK

kinases [10] = molecular target: kinases (Homo sapiens, UniProt P15056)
Chain of kinases (Homo sapiens, UniProt P15056) (P15056 whole entry): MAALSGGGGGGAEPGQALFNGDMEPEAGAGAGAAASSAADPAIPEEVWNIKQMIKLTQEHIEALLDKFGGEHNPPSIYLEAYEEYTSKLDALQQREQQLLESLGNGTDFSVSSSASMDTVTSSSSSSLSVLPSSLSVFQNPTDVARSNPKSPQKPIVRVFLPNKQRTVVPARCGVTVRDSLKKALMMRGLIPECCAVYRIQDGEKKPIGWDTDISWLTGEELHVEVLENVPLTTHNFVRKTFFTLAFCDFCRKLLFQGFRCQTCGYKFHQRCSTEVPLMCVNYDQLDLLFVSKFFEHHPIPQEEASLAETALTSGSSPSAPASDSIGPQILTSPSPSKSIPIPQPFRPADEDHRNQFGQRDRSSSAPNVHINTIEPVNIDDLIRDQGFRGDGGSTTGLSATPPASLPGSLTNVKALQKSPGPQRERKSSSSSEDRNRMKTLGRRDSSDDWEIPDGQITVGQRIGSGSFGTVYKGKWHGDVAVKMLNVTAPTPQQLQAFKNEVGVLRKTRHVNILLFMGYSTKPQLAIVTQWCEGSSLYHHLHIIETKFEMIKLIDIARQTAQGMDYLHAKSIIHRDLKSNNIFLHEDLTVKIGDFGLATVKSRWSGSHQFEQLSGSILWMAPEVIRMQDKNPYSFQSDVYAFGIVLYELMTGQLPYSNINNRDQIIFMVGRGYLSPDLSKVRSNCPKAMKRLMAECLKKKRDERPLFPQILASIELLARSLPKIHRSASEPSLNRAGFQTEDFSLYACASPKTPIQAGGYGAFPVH

kinases [11] = molecular target: kinases (Homo sapiens, UniProt Q16832); conditions: DDR2 Hu Bind FRET-Lantha SP; Test Conc(μM) 1
kinases [12] = molecular target: kinases (Homo sapiens, UniProt P31751); conditions: AKT2 (PKB beta) FRET-Z-Lyte SP; Test Conc(μM):ATP Conc(μM) 1:200
kinases [13] = molecular target: kinases (Homo sapiens, UniProt Q13237); conditions: PRKG2 (PKG2) FRET-Z-Lyte SP; Test Conc(μM):ATP Conc(μM) 1:150
kinases [14] = molecular target: kinases (Homo sapiens, UniProt Q9UEE5); conditions: STK17A (DRAK1) FRET-Lantha SP; Test Conc(μM) 1
Chain of kinases (Homo sapiens, UniProt Q9UEE5) (Q9UEE5 whole entry): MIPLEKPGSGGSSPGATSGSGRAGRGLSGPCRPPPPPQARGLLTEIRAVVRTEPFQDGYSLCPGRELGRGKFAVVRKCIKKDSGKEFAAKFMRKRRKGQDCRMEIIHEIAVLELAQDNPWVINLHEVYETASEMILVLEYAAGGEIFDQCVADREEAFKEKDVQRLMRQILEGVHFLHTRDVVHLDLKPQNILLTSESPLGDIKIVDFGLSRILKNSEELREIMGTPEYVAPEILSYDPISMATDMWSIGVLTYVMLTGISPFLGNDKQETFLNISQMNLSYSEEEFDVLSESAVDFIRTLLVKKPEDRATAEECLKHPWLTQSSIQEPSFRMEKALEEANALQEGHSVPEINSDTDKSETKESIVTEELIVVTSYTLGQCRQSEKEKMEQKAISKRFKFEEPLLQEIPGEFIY

kinases [15] = molecular target: kinases (Homo sapiens, UniProt Q02750)
Chain of kinases (Homo sapiens, UniProt Q02750) (Q02750 whole entry): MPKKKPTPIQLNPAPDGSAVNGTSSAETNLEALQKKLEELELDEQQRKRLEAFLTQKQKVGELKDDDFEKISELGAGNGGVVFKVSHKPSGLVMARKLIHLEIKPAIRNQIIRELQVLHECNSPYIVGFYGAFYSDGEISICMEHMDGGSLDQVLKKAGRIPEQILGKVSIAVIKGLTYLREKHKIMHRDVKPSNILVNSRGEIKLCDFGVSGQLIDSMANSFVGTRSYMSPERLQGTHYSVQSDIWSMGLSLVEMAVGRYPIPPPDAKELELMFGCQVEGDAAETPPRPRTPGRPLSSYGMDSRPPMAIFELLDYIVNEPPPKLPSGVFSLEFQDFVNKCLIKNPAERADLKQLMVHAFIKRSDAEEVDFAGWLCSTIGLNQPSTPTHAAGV

kinases [16] = molecular target: kinases (Homo sapiens, UniProt Q13163); conditions: MAP2K5 (MEK5) FRET-Lantha SP; Test Conc(μM) 1
kinases [17] = molecular target: kinases (Homo sapiens, UniProt Q06187); conditions: BTK FRET-Z-Lyte SP; Test Conc(μM):ATP Conc(μM) 1:25
kinases [18] = molecular target: kinases (Homo sapiens, UniProt Q16566); conditions: CAMK4 (CaMKIV) FRET-Z-Lyte SP; Test Conc(μM):ATP Conc(μM) 1:25
kinases [19] = molecular target: kinases (Homo sapiens, UniProt Q8TCG2); conditions: PI4K2B *Mn* FRET-Adapta SP; Test Conc(μM):ATP Conc(μM) 1:10
kinases [20] = molecular target: kinases (Homo sapiens, UniProt Q02156); conditions: PRKCE (PKC epsilon) Z-Lyte SP; Test Conc(μM):ATP Conc(μM) 1:25
kinases [21] = molecular target: kinases (Homo sapiens, UniProt P08631); conditions: HCK FRET-Z-Lyte SP; Test Conc(μM):ATP Conc(μM) 1:25
kinases [22] = molecular target: kinases (Homo sapiens, UniProt P45983)
Chain of kinases (Homo sapiens, UniProt P45983) (P45983 whole entry): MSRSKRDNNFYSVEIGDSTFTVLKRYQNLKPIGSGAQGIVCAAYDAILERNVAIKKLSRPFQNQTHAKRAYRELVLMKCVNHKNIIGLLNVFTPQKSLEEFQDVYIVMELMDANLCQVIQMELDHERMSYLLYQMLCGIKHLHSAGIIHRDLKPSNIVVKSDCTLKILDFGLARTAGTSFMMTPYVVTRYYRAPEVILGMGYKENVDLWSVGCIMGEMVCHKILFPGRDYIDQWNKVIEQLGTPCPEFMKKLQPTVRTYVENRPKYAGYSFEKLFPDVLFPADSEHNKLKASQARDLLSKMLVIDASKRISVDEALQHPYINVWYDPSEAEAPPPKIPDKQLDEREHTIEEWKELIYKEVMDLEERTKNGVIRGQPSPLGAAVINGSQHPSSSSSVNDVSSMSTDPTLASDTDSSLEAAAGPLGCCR

kinases [23] = molecular target: kinases (Homo sapiens, UniProt Q9Y243); conditions: AKT3 (PKB gamma) Z-Lyte SP; Test Conc(μM):ATP Conc(μM) 1:100
kinases [24] = molecular target: kinases (Homo sapiens, UniProt Q8TD08); conditions: MAPK15 (ERK7) FRET-Lantha SP; Test Conc(μM) 1
kinases [25] = molecular target: kinases (Homo sapiens, UniProt O14936); conditions: CASK FRET-Lantha SP; Test Conc(μM) 1
Chain of kinases (Homo sapiens, UniProt O14936) (O14936 whole entry): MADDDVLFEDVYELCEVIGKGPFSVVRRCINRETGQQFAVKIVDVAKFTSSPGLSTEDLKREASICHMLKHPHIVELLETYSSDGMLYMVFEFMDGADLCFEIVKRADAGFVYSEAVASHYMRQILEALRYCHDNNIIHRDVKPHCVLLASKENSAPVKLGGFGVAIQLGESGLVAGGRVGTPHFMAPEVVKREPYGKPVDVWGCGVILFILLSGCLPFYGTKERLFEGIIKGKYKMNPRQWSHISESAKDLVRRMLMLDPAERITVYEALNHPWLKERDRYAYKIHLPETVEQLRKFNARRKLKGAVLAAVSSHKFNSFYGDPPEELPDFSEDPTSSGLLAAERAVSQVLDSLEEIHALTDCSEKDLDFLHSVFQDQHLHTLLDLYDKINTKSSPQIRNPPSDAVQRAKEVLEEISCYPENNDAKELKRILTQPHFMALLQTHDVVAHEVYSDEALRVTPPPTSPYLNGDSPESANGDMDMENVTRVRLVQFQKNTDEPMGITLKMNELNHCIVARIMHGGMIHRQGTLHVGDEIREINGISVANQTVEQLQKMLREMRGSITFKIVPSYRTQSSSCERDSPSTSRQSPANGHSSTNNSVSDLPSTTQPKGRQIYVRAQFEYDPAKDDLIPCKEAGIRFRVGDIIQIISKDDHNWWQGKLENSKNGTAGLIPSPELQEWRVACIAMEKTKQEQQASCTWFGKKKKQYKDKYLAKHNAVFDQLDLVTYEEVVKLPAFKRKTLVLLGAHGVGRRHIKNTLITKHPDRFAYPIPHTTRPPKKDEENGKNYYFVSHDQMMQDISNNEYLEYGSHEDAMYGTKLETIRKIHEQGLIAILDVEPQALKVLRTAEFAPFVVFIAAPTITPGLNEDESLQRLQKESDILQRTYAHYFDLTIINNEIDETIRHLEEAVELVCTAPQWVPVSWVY

kinases [26] = molecular target: kinases (Homo sapiens, UniProt O95819); conditions: MAP4K4 (HGK) FRET-Z-Lyte SP; Test Conc(μM):ATP Conc(μM) 1:10
kinases [27] = molecular target: kinases (Homo sapiens, UniProt P78527); conditions: DNA-PK FRET-Z-Lyte SP; Test Conc(μM):ATP Conc(μM) 1:25
kinases [28] = molecular target: kinases (Homo sapiens, UniProt P49336); conditions: CDK8/cyclin C FRET-Lantha SP; Test Conc(μM) 1
Chain of kinases (Homo sapiens, UniProt P49336) (P49336 whole entry): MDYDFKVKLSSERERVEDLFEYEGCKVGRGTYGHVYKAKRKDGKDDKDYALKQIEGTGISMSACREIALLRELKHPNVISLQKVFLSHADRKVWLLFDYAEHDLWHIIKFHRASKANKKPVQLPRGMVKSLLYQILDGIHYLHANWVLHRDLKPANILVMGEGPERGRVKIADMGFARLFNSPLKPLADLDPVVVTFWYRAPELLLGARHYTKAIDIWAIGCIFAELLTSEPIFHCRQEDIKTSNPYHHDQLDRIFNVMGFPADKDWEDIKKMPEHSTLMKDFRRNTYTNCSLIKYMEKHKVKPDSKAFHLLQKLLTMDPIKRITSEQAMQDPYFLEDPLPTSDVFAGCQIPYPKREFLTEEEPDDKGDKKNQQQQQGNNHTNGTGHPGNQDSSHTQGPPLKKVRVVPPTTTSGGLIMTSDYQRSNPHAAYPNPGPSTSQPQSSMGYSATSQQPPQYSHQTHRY

[29] = bRAF Cascade FRET-Z-Lyte SP, Test Conc(μM):ATP Conc(μM) 1:100
[30] = bRAF FRET-Lantha SP, Test Conc(μM) 1
[31] = MAP2K1 (MEK1) FRET-Lantha SP, Test Conc(μM) 1
[32] = MAP2K1 (MEK1)Cascade Z-Lyte SP, Test Conc(μM):ATP Conc(μM) 1:100
[33] = MAPK8 (JNK1) Cascade Z-Lyte SP, Test Conc(μM):ATP Conc(μM) 1:100
[34] = MAPK8 (JNK1) FRET-Lantha SP, Test Conc(μM) 1

Chain of kinases (Homo sapiens, UniProt Q9BWU1) (Q9BWU1 whole entry): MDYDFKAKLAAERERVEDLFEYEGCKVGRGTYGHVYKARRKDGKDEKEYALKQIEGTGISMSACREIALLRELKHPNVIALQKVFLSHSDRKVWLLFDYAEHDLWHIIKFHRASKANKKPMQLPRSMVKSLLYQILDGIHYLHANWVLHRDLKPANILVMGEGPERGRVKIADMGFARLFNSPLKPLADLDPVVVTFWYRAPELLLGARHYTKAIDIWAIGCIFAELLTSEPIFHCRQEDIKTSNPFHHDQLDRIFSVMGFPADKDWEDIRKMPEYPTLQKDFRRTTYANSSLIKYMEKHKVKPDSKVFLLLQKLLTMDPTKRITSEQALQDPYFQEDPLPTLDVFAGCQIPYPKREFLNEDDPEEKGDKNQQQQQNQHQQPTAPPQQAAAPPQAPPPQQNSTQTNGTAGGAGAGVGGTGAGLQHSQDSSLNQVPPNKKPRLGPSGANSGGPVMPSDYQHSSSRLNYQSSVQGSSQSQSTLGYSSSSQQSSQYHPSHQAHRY

Structure (SMILES) | Mean Inhib (%) (kinases [1]) | Mean Inhib (%) (kinases [2]; CDK11(Inactive) FRET-Lantha SP) | Mean Inhib (%) (kinases [3]) | Mean Inhib (%) (kinases [4]) | Mean Inhib (%) (kinases [5]) | Mean Inhib (%) (kinases [6]) | Mean Inhib (%) (kinases [7]) | Mean Inhib (%) (kinases [8]) | Mean Inhib (%) (kinases [9]) | Mean Inhib (%) (kinases [10]; [29]) | Mean Inhib (%) (kinases [10]; [30]) | Mean Inhib (%) (kinases [11]) | Mean Inhib (%) (kinases [12]) | Mean Inhib (%) (kinases [13]) | Mean Inhib (%) (kinases [14]) | Mean Inhib (%) (kinases [15]; [31]) | Mean Inhib (%) (kinases [15]; [32]) | Mean Inhib (%) (kinases [16]) | Mean Inhib (%) (kinases [17]) | Mean Inhib (%) (kinases [18]) | other results
Cc1ccc(NC(=O)c2ccnc(N3CCOCC3)c2)cc1Nc1ccnc(N2CC(C)OC(C)C2)n1 (stereo not shown) [compound 3] | −2.0% | −0.2% | 3.7% | 6.0% | 10.2% | 4.9% | 3.0% | 3.6% | 0.0% | 10.3% | 66.8% | 65.5% | 8.0% | 2.4% | 4.6% | −3.2% | 20.0% | −1.6% | 6.7% | −5.4% | Mean Inhib (%) (kinases [2]; CDK11 Cyclin C FRET-Lantha SP): 2.1%; Mean Inhib (%) (kinases [19]): −15.8%; Mean Inhib (%) (kinases [20]): 12.2%; Mean Inhib (%) (kinases [21]): 6.4%; Mean Inhib (%) (kinases [22]; [33]): 6.5%; Mean Inhib (%) (kinases [22]; [34]): −6.1%; Mean Inhib (%) (kinases [23]): 5.8%; Mean Inhib (%) (kinases [24]): 0.8%; Mean Inhib (%) (kinases [25]): 16.8%; Mean Inhib (%) (kinases [26]): 16.9%; Mean Inhib (%) (kinases [27]): 13.7%; Mean Inhib (%) (kinases [28]): 8.6%
Cc1cc(Oc2ccnc(Nc3ccc(S(N)(=O)=O)cc3)c2)c(-c2ccccn2)nc1C [compound 65] | −2.0% | 1.0% | 15.7% | 8.4% | 0.4% | 0.9% | 9.6% | 8.1% | −7.6% | 16.7% | 10.4% | 1.6% | 2.3% | 0.2% | −1.2% | −0.5% | 17.3% | 3.4% | 29.9% | −1.8% | CDK11 Cyclin C FRET-Lantha SP Mean Mean Inhib (%) (kinases [2]; CDK11 Cyclin C): 3.8%; Mean Inhib (%) (kinases [19]): 1.8%; Mean Inhib (%) (kinases [20]): 10.0%; Mean Inhib (%) (kinases [21]): 30.9%; Mean Inhib (%) (kinases [22]; [33]): 16.9%; Mean Inhib (%) (kinases [22]; [34]): 7.0%; Mean Inhib (%) (kinases [23]): 4.2%; Mean Inhib (%) (kinases [24]): 1.5%; Mean Inhib (%) (kinases [25]): 12.1%; Mean Inhib (%) (kinases [26]): 12.0%; Mean Inhib (%) (kinases [27]): 13.9%; Mean Inhib (%) (kinases [28]): 5.9%
